Assay results from ChEMBL document CHEMBL3885861, “Open TG-GATES”.

Organism: Rattus norvegicus
Experiment: Open TG-GATES - Regimen: Single
Type: toxicity, organism-based, Sprague-Dawley
Parameters: regimen Single, gender Male, age 6 weeks
Conditions: in vivo, po, route gavage; for APTT / Bas / Eos / Fbg / Hb / Ht / Lym / MCH / MCHC / MCV / Mono / Neu / PT / Plat / RBC / Ret / WBC: tissue Blood; for KIDNEY_L / KIDNEY_R / KIDNEY_TOTAL: tissue Kidney; for LIVER: tissue Liver; for A/G / ALP / ALT / AST / BUN / CRE / Ca / Cl / DBIL / GLC / IP / K / LDH / Na / PL / RALB / TBIL / TC / TG / TP / gamma-GTP: tissue Plasma
[1] = 0 mg/kg, 3 h, dose level Control
[2] = 0 mg/kg, 6 h, dose level Control
[3] = 0 mg/kg, 9 h, dose level Control
[4] = 0 mg/kg, 24 h, dose level Control

## CN(C)CCC(c1ccc(Cl)cc1)c1ccccn1 (centres undefined) [CHLORPHENIRAMINE]
[1]
  TERMINAL_BW: 198.4 g
  APTT: 18.8 s
  Bas: 0.2%
  Eos: 0.8%
  Fbg: 288.8 mg/dL
  Hb: 12.6 g/dL
  Ht: 39.4%
  Lym: 77.4%
  MCH: 20.8 pg
  MCHC: 32.1%
  MCV: 64.9 fL
  Mono: 2.8%
  Neu: 18.2%
  PT: 14.7 s
  Plat: 109.9 x10_4/uL
  RBC: 606.2 x10_4/ul
  Ret: 9.4%
  WBC: 120.9 x10_2/uL
  KIDNEY_L: 0.9 g
  KIDNEY_R: 0.9 g
  KIDNEY_TOTAL: 1.7 g
  LIVER: 9.2 g
  A/G: 0.9
  ALP: 1344.2 IU/L
  ALT: 46 IU/L
  AST: 73.6 IU/L
  BUN: 9.2 mg/dL
  CRE: 0.2 mg/dL
  Ca: 10.5 mg/dL
  Cl: 107.2 meq/L
  DBIL: 0.008 mg/dL
  GLC: 179 mg/dL
  IP: 9.7 mg/dL
  K: 4.3 meq/L
  LDH: 215.8 IU/L
  Na: 142.8 meq/L
  PL: 137.2 mg/dL
  RALB: 2.5 g/dL
  TBIL: 0.054 mg/dL
  TC: 79.8 mg/dL
  TG: 46.6 mg/dL
  TP: 5.3 g/dL
  gamma-GTP: 1.4 IU/L
[2]
  TERMINAL_BW: 196.5 g
  APTT: 17.5 s
  Bas: 0%
  Eos: 0.6%
  Fbg: 303.6 mg/dL
  Hb: 12.8 g/dL
  Ht: 40.3%
  Lym: 76.8%
  MCH: 20.7 pg
  MCHC: 31.8%
  MCV: 65.1 fL
  Mono: 3.2%
  Neu: 18.8%
  PT: 14.8 s
  Plat: 117.5 x10_4/uL
  RBC: 618.2 x10_4/ul
  Ret: 9.5%
  WBC: 82.5 x10_2/uL
  KIDNEY_L: 0.9 g
  KIDNEY_R: 0.9 g
  KIDNEY_TOTAL: 1.7 g
  LIVER: 8.7 g
  A/G: 0.9
  ALP: 1456.6 IU/L
  ALT: 44.8 IU/L
  AST: 76.2 IU/L
  BUN: 10.2 mg/dL
  CRE: 0.2 mg/dL
  Ca: 10.8 mg/dL
  Cl: 106.6 meq/L
  DBIL: 0.008 mg/dL
  GLC: 190.6 mg/dL
  IP: 10.7 mg/dL
  K: 4.2 meq/L
  LDH: 140.2 IU/L
  Na: 143 meq/L
  PL: 135.2 mg/dL
  RALB: 2.5 g/dL
  TBIL: 0.05 mg/dL
  TC: 81 mg/dL
  TG: 49.2 mg/dL
  TP: 5.4 g/dL
  gamma-GTP: 1.2 IU/L
[3]
  TERMINAL_BW: 193.9 g
  APTT: 19.1 s
  Bas: 0%
  Eos: 0.8%
  Fbg: 294.4 mg/dL
  Hb: 12.7 g/dL
  Ht: 39.4%
  Lym: 75.6%
  MCH: 21.6 pg
  MCHC: 32.2%
  MCV: 67.1 fL
  Mono: 2.8%
  Neu: 19.8%
  PT: 15 s
  Plat: 107.8 x10_4/uL
  RBC: 587.6 x10_4/ul
  Ret: 9.5%
  WBC: 66.4 x10_2/uL
  KIDNEY_L: 0.9 g
  KIDNEY_R: 0.9 g
  KIDNEY_TOTAL: 1.7 g
  LIVER: 7.7 g
  A/G: 0.9
  ALP: 1415.8 IU/L
  ALT: 38.6 IU/L
  AST: 73.8 IU/L
  BUN: 8.2 mg/dL
  CRE: 0.1 mg/dL
  Ca: 10.2 mg/dL
  Cl: 106.6 meq/L
  DBIL: 0.008 mg/dL
  GLC: 161.6 mg/dL
  IP: 10.7 mg/dL
  K: 4 meq/L
  LDH: 116.2 IU/L
  Na: 143.8 meq/L
  PL: 131.6 mg/dL
  RALB: 2.5 g/dL
  TBIL: 0.054 mg/dL
  TC: 76.2 mg/dL
  TG: 39.4 mg/dL
  TP: 5.4 g/dL
  gamma-GTP: 1.2 IU/L
[4]
  TERMINAL_BW: 212.2 g
  APTT: 19.7 s
  Bas: 0%
  Eos: 1%
  Fbg: 292.6 mg/dL
  Hb: 13.3 g/dL
  Ht: 41.2%
  Lym: 80.6%
  MCH: 21.2 pg
  MCHC: 32.2%
  MCV: 66 fL
  Mono: 3.6%
  Neu: 14.2%
  PT: 14.7 s
  Plat: 116.5 x10_4/uL
  RBC: 624.8 x10_4/ul
  Ret: 8.4%
  WBC: 75.5 x10_2/uL
  KIDNEY_L: 0.9 g
  KIDNEY_R: 0.9 g
  KIDNEY_TOTAL: 1.8 g
  LIVER: 10 g
  A/G: 0.8
  ALP: 1528.4 IU/L
  ALT: 46 IU/L
  AST: 70.2 IU/L
  BUN: 14.6 mg/dL
  CRE: 0.2 mg/dL
  Ca: 11 mg/dL
  Cl: 106.4 meq/L
  DBIL: 0.012 mg/dL
  GLC: 190.6 mg/dL
  IP: 8.8 mg/dL
  K: 4.3 meq/L
  LDH: 94.4 IU/L
  Na: 143 meq/L
  PL: 156.8 mg/dL
  RALB: 2.7 g/dL
  TBIL: 0.04 mg/dL
  TC: 85 mg/dL
  TG: 86 mg/dL
  TP: 5.8 g/dL
  gamma-GTP: 1.4 IU/L
3 mg/kg, 3 h, dose level Low
  TERMINAL_BW: 195.7 g
  APTT: 18 s
  Bas: 0%
  Eos: 0.6%
  Fbg: 281.4 mg/dL
  Hb: 13.4 g/dL
  Ht: 41.7%
  Lym: 72.6%
  MCH: 20.9 pg
  MCHC: 32.2%
  MCV: 64.9 fL
  Mono: 3.4%
  Neu: 22.4%
  PT: 15 s
  Plat: 124.5 x10_4/uL
  RBC: 642.6 x10_4/ul
  Ret: 8.9%
  WBC: 84.7 x10_2/uL
  KIDNEY_L: 0.9 g
  KIDNEY_R: 0.8 g
  KIDNEY_TOTAL: 1.7 g
  LIVER: 8.5 g
  A/G: 0.9
  ALP: 1618.2 IU/L
  ALT: 47 IU/L
  AST: 76 IU/L
  BUN: 9.2 mg/dL
  CRE: 0.2 mg/dL
  Ca: 10.9 mg/dL
  Cl: 106 meq/L
  DBIL: 0.01 mg/dL
  GLC: 179.8 mg/dL
  IP: 10.4 mg/dL
  K: 4.1 meq/L
  LDH: 195 IU/L
  Na: 143.6 meq/L
  PL: 140.2 mg/dL
  RALB: 2.5 g/dL
  TBIL: 0.048 mg/dL
  TC: 77.8 mg/dL
  TG: 53.4 mg/dL
  TP: 5.5 g/dL
  gamma-GTP: 2 IU/L
3 mg/kg, 6 h, dose level Low
  TERMINAL_BW: 194.4 g
  APTT: 20 s
  Bas: 0.4%
  Eos: 1%
  Fbg: 296.2 mg/dL
  Hb: 13.2 g/dL
  Ht: 41.3%
  Lym: 75.8%
  MCH: 20.8 pg
  MCHC: 31.9%
  MCV: 65.1 fL
  Mono: 3.4%
  Neu: 19.2%
  PT: 14.9 s
  Plat: 119.3 x10_4/uL
  RBC: 633.8 x10_4/ul
  Ret: 9.5%
  WBC: 83.2 x10_2/uL
  KIDNEY_L: 0.9 g
  KIDNEY_R: 0.9 g
  KIDNEY_TOTAL: 1.8 g
  LIVER: 8.1 g
  A/G: 0.9
  ALP: 1343.4 IU/L
  ALT: 41.4 IU/L
  AST: 71.2 IU/L
  BUN: 7.8 mg/dL
  CRE: 0.2 mg/dL
  Ca: 10.5 mg/dL
  Cl: 108.4 meq/L
  DBIL: 0.004 mg/dL
  GLC: 176 mg/dL
  IP: 10.4 mg/dL
  K: 4.1 meq/L
  LDH: 200 IU/L
  Na: 144.4 meq/L
  PL: 150.2 mg/dL
  RALB: 2.5 g/dL
  TBIL: 0.052 mg/dL
  TC: 89.6 mg/dL
  TG: 42.6 mg/dL
  TP: 5.4 g/dL
  gamma-GTP: 1.4 IU/L
3 mg/kg, 9 h, dose level Low
  TERMINAL_BW: 194.2 g
  APTT: 17.4 s
  Bas: 0%
  Eos: 1%
  Fbg: 288.2 mg/dL
  Hb: 12.8 g/dL
  Ht: 39.6%
  Lym: 77.8%
  MCH: 20.9 pg
  MCHC: 32.4%
  MCV: 64.7 fL
  Mono: 2.8%
  Neu: 18%
  PT: 14.8 s
  Plat: 119.5 x10_4/uL
  RBC: 612.4 x10_4/ul
  Ret: 9.2%
  WBC: 71.4 x10_2/uL
  KIDNEY_L: 0.9 g
  KIDNEY_R: 0.9 g
  KIDNEY_TOTAL: 1.8 g
  LIVER: 7.7 g
  A/G: 0.9
  ALP: 1240.8 IU/L
  ALT: 40.6 IU/L
  AST: 71 IU/L
  BUN: 8.2 mg/dL
  CRE: 0.1 mg/dL
  Ca: 10.3 mg/dL
  Cl: 105.8 meq/L
  DBIL: 0.006 mg/dL
  GLC: 165.2 mg/dL
  IP: 10.2 mg/dL
  K: 3.9 meq/L
  LDH: 139 IU/L
  Na: 142.8 meq/L
  PL: 143 mg/dL
  RALB: 2.5 g/dL
  TBIL: 0.046 mg/dL
  TC: 85.4 mg/dL
  TG: 37.2 mg/dL
  TP: 5.3 g/dL
  gamma-GTP: 1 IU/L
3 mg/kg, 24 h, dose level Low
  TERMINAL_BW: 214.2 g
  APTT: 15.8 s
  Bas: 0%
  Eos: 1%
  Fbg: 291.4 mg/dL
  Hb: 12.9 g/dL
  Ht: 40.3%
  Lym: 78.2%
  MCH: 20.4 pg
  MCHC: 32.1%
  MCV: 63.5 fL
  Mono: 3%
  Neu: 16.4%
  PT: 14.6 s
  Plat: 123.3 x10_4/uL
  RBC: 634.4 x10_4/ul
  Ret: 7.9%
  WBC: 88.7 x10_2/uL
  KIDNEY_L: 0.9 g
  KIDNEY_R: 0.9 g
  KIDNEY_TOTAL: 1.8 g
  LIVER: 9.9 g
  A/G: 0.9
  ALP: 1572.2 IU/L
  ALT: 47.4 IU/L
  AST: 72.6 IU/L
  BUN: 14.4 mg/dL
  CRE: 0.2 mg/dL
  Ca: 11.2 mg/dL
  Cl: 105.6 meq/L
  DBIL: 0.016 mg/dL
  GLC: 188.6 mg/dL
  IP: 8.9 mg/dL
  K: 4.5 meq/L
  LDH: 131.6 IU/L
  Na: 142.8 meq/L
  PL: 150.4 mg/dL
  RALB: 2.6 g/dL
  TBIL: 0.05 mg/dL
  TC: 81.6 mg/dL
  TG: 80.8 mg/dL
  TP: 5.7 g/dL
  gamma-GTP: 1 IU/L
